Patent US9738675B2, “Water-soluble photochromic compound” (RIKKYO EDUCATIONAL CORPORATION, priority 2012, dated 2017)

Legend:
[1] = Assessment of water-solubility; type: physicochemical; settings: assessed similarly to Example 1
Experimental: The water solubility of a compound of formula (I-2) was assessed similarly to Example 1, to check that the compound is water soluble.

[2] = Photochromic property: absorption and fluorescence spectra in solution; type: physicochemical
Experimental: The spectrum of the open ring form is shown by dotted line 10. Irradiation with the UV light (313 nm) turned the solution purple, and a spectrum shown by solid line 20 was observed.
The water solubility of a compound of formula (I-2) was assessed similarly to Example 1, to check that the compound is water soluble. Specifically, the compound of (1-2) was dissolved in a small amount of methanol (0.2 mL), and distilled water (4 mL) was added to prepare a 95% aqueous solution, and an absorption spectrum of FIG. 2 (by Hitachi, using U-4100) was obtained as a result. The spectrum of the open ring form is shown by dotted line 10. Irradiation with a UV light (313 nm) turned the solution yellow, and a spectrum shown by solid line 20 was observed. In addition, the irradiation with the UV light made the compound fluorescent, and a spectrum of solid line 30 was obtained.
Curve 10 is a spectrum of the compound (open ring form) of formula (I-3), and the maximum absorption wave length was 254 nm. Then, an aqueous solution of the compound of formula (I-3) was irradiated with light of 254 nm to obtain a photostationary state (PSS), in which the ring closing reaction has ended. The spectrum at this state is shown as curve 20. The maximum absorption wavelength of the closed ring form was 595 nm.
About 0.5 mg of the given compound was dissolved in each of 0.5 mL of water/methanol (weight rate of 90/10) and 0.5 mL of only methanol to prepare a solution. For convenience, the former will be referred to as an aqueous solution, and the latter will be referred to as a methanol solution. Curve 10 is a spectrum of the compound of formula (I-4) (open ring form). In the methanol solution, the maximum absorption wavelength is 450 nm, and the molar absorption coefficient was 39000 M^−1 cm^−1. The absorption disappeared when irradiated with visible light, and the solution returned to a colorless state. Curve 20 is a spectrum of the closed ring form. […] Further, the fluorescence disappeared when the compound returned to the open ring form.
In the aqueous solution, the maximum absorption wavelength of the open ring form was 458 nm, and the molar absorption coefficient was 36000 M^−1 cm^−1. The absorption disappeared when irradiated with visible light, and the solution returned to a colorless state. […] Further, the fluorescence disappeared when the compound returned to the open ring form.

[3] = 95% aqueous solution, UV 313 nm

SMILES | water solubility [1] | colour of solution after irradiation with UV light [2, 3] | fluorescence after irradiation with UV light [2, 3] | maximum absorption wave length, open ring form ([2]; aqueous solution) | maximum absorption wavelength, closed ring form ([2]; aqueous solution, photostationary state after 254 nm light) | photochromism ([2]; aqueous solution, visible light longer than 600 nm)
CC1=C(C2=C(C3=C(C)S(=O)(=O)c4cc(CO[C@@H]5O[C@H](CO)[C@@H](O)[C@H](O)[C@H]5O)ccc43)C(F)(F)C(F)(F)C2(F)F)c2ccc(CO[C@@H]3O[C@H](CO)[C@@H](O)[C@H](O)[C@H]3O)cc2S1(=O)=O [I-2] | water soluble | yellow | fluorescent |  |  | 
Cc1sc(C(=O)O[C@@H]2[C@H](O)[C@@H](O)[C@H](O)[C@@H](O)[C@@H]2O)cc1C1=C(c2cc(C(=O)O[C@@H]3[C@H](O)[C@@H](O)[C@H](O)[C@@H](O)[C@@H]3O)sc2C)C(F)(F)C(F)(F)C1(F)F [I-3] | water soluble |  |  | 254 nm | 595 nm | reversible photochromism
